Source: PubChem BioAssay (NCI)
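Cultured in 96-well plates, cells were exposed to test compound for 48 hours across five concentrations. GI50 is the concentration that inhibits growth by half. Definition used: TGI = concentration required for complete inhibition of growth.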

Tests used:
Experiment in all cases: NCI tumour cell line growth inhibition, 48 h
NCI-H226 lung = test system: NCI-H226 lung
SNB-19 CNS = test system: SNB-19 CNS
A549 NSCLC = test system: A549 NSCLC
OVCAR-4 ovarian = test system: OVCAR-4 ovarian
MDA-MB-231 breast = test system: MDA-MB-231 breast
LOX IMVI melanoma = test system: LOX IMVI melanoma
T-47D breast = test system: T-47D breast
IGROV1 ovarian = test system: IGROV1 ovarian
UACC-62 melanoma = test system: UACC-62 melanoma
COLO 205 colon = test system: COLO 205 colon
SNB-75 CNS = test system: SNB-75 CNS
PC-3 prostate = test system: PC-3 prostate
U251 CNS = test system: U251 CNS
RPMI-8226 leukemia = test system: RPMI-8226 leukemia
TK-10 renal = test system: TK-10 renal
NCI-H522 lung = test system: NCI-H522 lung
UO-31 renal = test system: UO-31 renal
MDA-MB-468 breast = test system: MDA-MB-468 breast
HCT-116 colon = test system: HCT-116 colon
OVCAR-3 ovarian = test system: OVCAR-3 ovarian
EKVX NSCLC = test system: EKVX NSCLC
SK-OV-3 ovarian = test system: SK-OV-3 ovarian
786-0 renal = test system: 786-0 renal
SN12C renal = test system: SN12C renal
K-562 leukemia = test system: K-562 leukemia
MCF7 breast = test system: MCF7 breast
CCRF-CEM leukemia = test system: CCRF-CEM leukemia
HL-60(TB) leukemia = test system: HL-60(TB) leukemia
NCI/ADR-RES ovarian = test system: NCI/ADR-RES ovarian

## COc1ccc2[nH]cc(-c3cc(N)n4nc(-c5cn(C)c6ccccc56)cc4n3)c2c1
NCI-H226 lung
  GI50: 1870 nM
  TGI: 4740 nM
SNB-19 CNS
  GI50: 1660 nM
  TGI: 3110 nM
A549 NSCLC
  GI50: 1540 nM
  TGI: 2900 nM
OVCAR-4 ovarian
  GI50: 1700 nM
  TGI: 3190 nM
MDA-MB-231 breast
  GI50: 1510 nM
  TGI: 2840 nM
LOX IMVI melanoma
  GI50: 1760 nM
  TGI: 3280 nM
T-47D breast
  GI50: 2010 nM
  TGI: 4430 nM
IGROV1 ovarian
  GI50: 1620 nM
  TGI: 3050 nM
UACC-62 melanoma
  GI50: 1620 nM
  TGI: 2990 nM
COLO 205 colon
  GI50: 1790 nM
  TGI: 3410 nM
SNB-75 CNS
  GI50: 1400 nM
  TGI: 2810 nM
PC-3 prostate
  GI50: 1670 nM
  TGI: 3520 nM
U251 CNS
  GI50: 1690 nM
  TGI: 3150 nM
RPMI-8226 leukemia
  GI50: 1940 nM
  TGI: 5000 nM
TK-10 renal
  GI50: 1890 nM
  TGI: 3370 nM
NCI-H522 lung
  GI50: 1520 nM
  TGI: 2990 nM
UO-31 renal
  GI50: 1460 nM
  TGI: 2780 nM
MDA-MB-468 breast
  GI50: 1570 nM
  TGI: 3060 nM
HCT-116 colon
  GI50: 1540 nM
  TGI: 3690 nM
OVCAR-3 ovarian
  GI50: 1800 nM
  TGI: 3340 nM
EKVX NSCLC
  GI50: 1800 nM
  TGI: 3890 nM
SK-OV-3 ovarian
  GI50: 1810 nM
  TGI: 3360 nM
786-0 renal
  GI50: 1590 nM
  TGI: 3120 nM
SN12C renal
  GI50: 1530 nM
  TGI: 2860 nM
K-562 leukemia
  GI50: 614 nM
  TGI: 6660 nM
MCF7 breast
  GI50: 1460 nM
  TGI: 3250 nM
CCRF-CEM leukemia
  GI50: 1860 nM
  TGI: 6440 nM
HL-60(TB) leukemia
  GI50: 1390 nM
  TGI: 3580 nM
NCI/ADR-RES ovarian
  GI50: 1890 nM
  TGI: 3820 nM
